Assay: Phase 1 multiple ascending dose study of grapiprant tablets: serum pharmacokinetics
Type: in vivo, human
Details: for Rac (Day 14/Day 1) / half-life / Cmax / AUC(0-t): mean; for increase of mean systemic exposure (AUC and Cmax) with dose: 14 days; for half-life / Cmax / AUC(0-t) / Tmax: human, oral, serum; for Tmax: median
Description: Serum pharmacokinetic parameters can be computed using WinNonlin Version 3.2 (Pharsight®, Mountain View, Calif.) using standard non-compartmental methods. As used herein, the term “Cmax” refers to the maximum observed serum concentration of grapiprant estimated directly from concentration versus time data. As used herein, the term “Tmax” refers to the time of the first occurrence of Cmax. As used herein, the term “AUC(0-tlast)” refers to the area under the serum concentration vs. time curve from time 0 to Tlast (the time of the last quantifiable concentration estimated using the linear/log trapezoidal approximation). When data permitted, the terminal elimination rate constant (kel) was estimated using linear least-square regression analysis of the serum concentration-time data obtained during the terminal log-linear phase. As used herein, the term “AUC(0-inf)” refers to AUC(0-tlast) extrapolated to infinity, which is calculated as the sum of AUC(0-tlast) and Cest/kel, wherein Cest is the predicted plasma concentration obtained from the log linear regression analysis at the last quantifiable time point. As used herein, the term “t½” refers to terminal phase half-life calculated as ln(2)/kel. As used herein, the term “AUC(last-inf)” refers to the area under the serum concentration versus time curve from Tlast to infinity, which is estimated as Cpest/kel, wherein Cpest represented the estimated concentration at time Tlast based on the aforementioned regression analysis. As used herein, the term “AUCτ” refers to the area under the serum concentration versus time curve over the dosing interval. As used herein, the term “Rac” refers to the accumulation ratio of grapiprant in the serum, which is calculated as a measure of drug accumulation at steady state compared to Day 1. Rac for the 14 day oral administration described herein is calculated using the equation: Rac=(Day 14 AUCτ/Day 1 AUCτ). Rac for the 17 day oral administration described herein is calculated using the equation: Rac=(Day 17 AUCτ/Day 1 AUCτ). Day 17 is used as steady state in the elderly group of subjects, which is Day 14 of the multiple dosing period for these subjects.
As used herein, the terms “cohort 1”, “cohort 2”, and “cohort 3” refer to studies where grapiprant tablets are administered at dosage levels of 50 mg, 150 mg, and 300 mg, respectively, in healthy adult subjects with a 14 day oral administration regimen as follows: one dose in the morning in a fasting state on day 1; twice daily (BID, approximately every 12 hours) on days 2 through 13: one dose in a fasting state in the morning, and one dose in the evening on an empty stomach; and one dose in the morning in a fasting state on day 14.
As used herein, the term “cohort 5” and/or “cohort 6” refers to a study where grapiprant tablets are administered at a dosage level of 250 mg in elderly subjects with minor renal impairment with a 17 day oral administration regimen as follows: one dose in the morning in a fasting state on day 1; twice daily (BID, approximately every 12 hours) on days 4 through 16: one dose in a fasting state in the morning, and one dose in the evening on an empty stomach; and one dose in the morning in a fasting state on day 17.
Dosing and Duration: In Cohorts 1-3, study medication was administered once daily in the morning on Days 1 and 14, and twice daily (BID, approximately every 12 hours) on Days 2 through 13. In Cohorts 5 and 6, study medication was administered once daily in the morning on Day 1, BID on Days […] through 16, and once in the morning on Day 17. In all cohorts dosing was to be in the fasting state for the morning dose and on an “empty stomach” for the evening dose.
Pharmacokinetic Evaluations: Serial blood samples for serum PK evaluations of grapiprant began prior to dosing on Day 1 and continued until 48 hours following Day 14 dosing (Cohorts 1-3) or until 24 hours following Day 17 dosing (Cohorts 5 and 6). […]

[1] = 50 mg, 50 mg BID tablets, Day 1, healthy adults
[2] = 50 mg, 50 mg BID tablets, Day 14, healthy adults
[3] = 150 mg, 150 mg BID tablets, Day 1, healthy adults
[4] = 150 mg, 150 mg BID tablets, Day 14, healthy adults
[5] = 250 mg, 250 mg BID tablets, Day 1, elderly with mild renal impairment
[6] = 250 mg, 250 mg BID tablets, Day 17, elderly with mild renal impairment
[7] = 300 mg, 300 mg BID tablets, Day 1, healthy adults
[8] = 300 mg, 300 mg BID tablets, Day 14, healthy adults

CCc1nc2c(C)nc(C)cc2n1-c1ccc(CCNC(=O)NS(=O)(=O)c2ccc(C)cc2)cc1 [Grapiprant, N-((4-(2-ethyl-4,6-dimethyl-1H-imidazo[4,5-c]pyridin-1-yl)phenethyl)carbamoyl)-4-methylbenzenesulfonamide]
Rac (Day 14/Day 1) (50 mg BID tablets, Day 14 AUCT/Day 1 AUCT, healthy adults): 1.13
Rac (Day 14/Day 1) (150 mg BID tablets, Day 14 AUCT/Day 1 AUCT, healthy adults): 1.20
Rac (Day 14/Day 1) (250 mg BID tablets, Day 17 AUCT/Day 1 AUCT, elderly with mild renal impairment): 1.54
mean exposure compared with the 300 mg BID healthy adult group (250 mg BID, elderly subjects with mild renal impairment): slightly greater
Rac (Day 14/Day 1) (300 mg BID tablets, Day 14 AUCT/Day 1 AUCT, healthy adults): 1.33
increase of mean systemic exposure (AUC and Cmax) with dose (between 50 and 150 mg BID, tablets, healthy adults): approximately dose proportional
increase of mean exposures (dose increased 2-fold from 150 mg BID to 300 mg BID, healthy adults): approximately 3 fold
increase of mean systemic exposure (AUC and Cmax) with dose (dose increased from 150 mg BID to 300 mg BID, healthy adults): greater than dose proportional increase
half-life (50 mg BID tablets, Day 14, healthy adults): 6.47 h
half-life (150 mg BID tablets, Day 14, healthy adults): 9.71 h
half-life (250 mg BID tablets, Day 1, elderly with mild renal impairment): 8.63 h
half-life (300 mg BID tablets, Day 14, healthy adults): 8.76 h
Cmax (50 mg, 50 mg BID tablets, Day 1 (n = 9), healthy adults): 578 ng/mL
AUC(0-t) [1]: 3150 ng·h/mL
Tmax [1]: 1.5 h
Cmax (50 mg, 50 mg BID tablets, Day 14 (n = 8), healthy adults): 611 ng/mL
AUC(0-t) [2]: 3370 ng·h/mL
Tmax [2]: 1.25 h
Cmax (150 mg, 150 mg BID tablets, Day 1 (n = 9), healthy adults): 2150 ng/mL
AUC(0-t) [3]: 8970 ng·h/mL
Tmax [3]: 1.5 h
Cmax (150 mg, 150 mg BID tablets, Day 14 (n = 9), healthy adults): 2670 ng/mL
AUC(0-t) [4]: 10300 ng·h/mL
Tmax [4]: 1.5 h
Cmax (250 mg, 250 mg BID tablets, Day 1 (n = 15), elderly with mild renal impairment): 10300 ng/mL
AUC(0-t) [5]: 30100 ng·h/mL
Tmax [5]: 1 h
Cmax (250 mg, 250 mg BID tablets, Day 17 (n = 14), elderly with mild renal impairment): 12300 ng/mL
AUC(0-t) [6]: 40200 ng·h/mL
Tmax [6]: 1 h
Cmax (300 mg, 300 mg BID tablets, Day 1 (n = 9), healthy adults): 8240 ng/mL
AUC(0-t) [7]: 24900 ng·h/mL
Tmax [7]: 1.5 h
Cmax (300 mg, 300 mg BID tablets, Day 14 (n = 9), healthy adults): 10400 ng/mL
AUC(0-t) [8]: 32300 ng·h/mL
Tmax [8]: 1 h
